# Key:
# [1] = system: Fischer 344 male rats; assay: Morris water maze spatial memory test in rats; type: in vivo, rat; details: fed 7 weeks, 4 consecutive days, 4 trials per day, averaged, standard deviation around 20%
# Text: FIG. 1 of 2 depicts measurements of spatial memory in (Fischer 344 male rats) subjected to a water maze test, after treatment with carnitine, lipoic acid, and/or polyphenol. […] The Morris maze task tests spatial memory by requiring rats to fmd a submerged platform in a pool of water using external visual cues (Morris, R. 1984; J. Neurosci. Methods, 11:47-60; Schenk, F. and Morris, R, Exp. Brain Res. 58:11-28, 1985). The rats in the experimental group (5 each) were fed either 0.5% (wt/vol) acetyl-L-carnitine in water, 1.0% (wt/vol) polyphenol in water; 0.2% (wt/wt) lipoic acid in AIN93M diet, or a combination of the above. Rats were acclimated for one week before experiments. Rats were fed for the above treatment for 7 weeks before tests. Trials (4 consecutive days, 4 trials per day) were conducted and the results averaged. The standard deviation is around 20%. Control rats were fed with water and AIN93M diet only.
# [2] = system: oxidation level of DNA; assay: Oxidation level of DNA in hippocampus sections (anti-8-hydroxy-2'-deoxyguanosine/8-hydroxyguanosine immunocytochemistry); type: in vivo; details: rat brain hippocampus sections, fed 7 weeks; mean of 5 animals; standard deviation about 15%
# Text: The rats in the experimental group (5 each) were fed either 0.5% (wt/vol) acetyl-L-camitine in water, 1.0% (wt/vol) polyphenol in water; 0.2% (wt/wt) lipoic acid in AIN93M diet, or a combination of the above. Rats were acclimated for one week before experiments. Rats were fed for the above treatment for 7 weeks before tests. Control rats were fed with water and AIN93M diet only. For assaying DNA oxidation, rats from each treatment group (5 animals per group) was anesthetized with ether and perfused with paraformaldehyde. The brain was removed and postfixed for paraffin sections. Sections of hippocampus were incubated with anti-8-hydroxy-2′-deoxyguanosine/8-hydroxyguanosine and visualized by using standard immunocytochemical methods. Quantification of oxidation was done as described in Liu, J K, et al., (Proc. Natl. Acad. Sci USA, 99:1356-2361, 2002). Values are a mean of 5 animals. The standard deviation is about 15%.
compound,measurement,setting,value
O=C(O)CCCC[C@@H]1CCSS1 (racemic) [lipoic acid],"mastery of the water maze, faster over no treatment",[1],~79%
same,DNA oxidation level compared with rats having no treatment,[2],~82%
